Measurements from patent US11939314B2, “Quinolin-2-one derivatives” (MERCK PATENT GMBH, priority 2016, dated 2024).
Where a name gives a salt, the structure may show the parent alone.

Key:
PDGFRalpha(V561D) = target: T1, PDGFRalpha(V561D) (Homo sapiens, UniProt P16234, V561D); test: PDGFRalpha(V561D) assay; type: biochemical; conditions: recombinant human PDGFRalpha aa 550-end, 200 μM ATP, 1.4E-06 means 1.4×10^−6, read-out: Inhibition (IC50) of PDGFRα (V561D)
T1 construct: recombinant human PDGFRalpha, amino acids 550end containing the V561 D mutation; 6His (N)
T1 sequence (P16234 550-1089 V561D): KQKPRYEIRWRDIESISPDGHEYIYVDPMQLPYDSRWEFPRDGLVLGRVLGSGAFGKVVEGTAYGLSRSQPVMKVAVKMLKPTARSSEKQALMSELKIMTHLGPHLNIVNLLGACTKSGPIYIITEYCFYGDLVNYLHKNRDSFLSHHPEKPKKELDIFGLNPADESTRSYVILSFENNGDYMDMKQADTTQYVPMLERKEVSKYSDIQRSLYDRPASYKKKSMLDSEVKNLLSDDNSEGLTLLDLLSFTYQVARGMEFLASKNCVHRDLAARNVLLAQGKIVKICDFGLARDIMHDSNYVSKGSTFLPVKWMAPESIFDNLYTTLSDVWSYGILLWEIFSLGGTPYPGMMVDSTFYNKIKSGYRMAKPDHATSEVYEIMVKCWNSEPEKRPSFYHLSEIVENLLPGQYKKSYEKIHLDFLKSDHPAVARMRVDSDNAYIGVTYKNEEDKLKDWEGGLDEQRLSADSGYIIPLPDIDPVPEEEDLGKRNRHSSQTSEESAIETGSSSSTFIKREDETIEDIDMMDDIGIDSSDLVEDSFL
In short: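 Radiometric filter-binding assay: substrate phosphorylation by recombinant N-His-tagged human PDGFRα 550-end V561D was quenched with 3% phosphoric acid after 40 min at room temperature, then counted.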

c-Kit(V654A) = target: T2, c-Kit(V654A) (Homo sapiens, UniProt P10721, V654A); test: c-Kit(V654A) assay; type: biochemical; conditions: recombinant human c-Kit aa 544-end, 200 μM ATP, 1.4E-06 means 1.4×10^−6, read-out: Inhibition (IC50) of c-KIT (V654A)
T2 construct: amino acids 544-end containing the V654A mutation; GST (N)
T2 sequence (P10721 544-976 V654A): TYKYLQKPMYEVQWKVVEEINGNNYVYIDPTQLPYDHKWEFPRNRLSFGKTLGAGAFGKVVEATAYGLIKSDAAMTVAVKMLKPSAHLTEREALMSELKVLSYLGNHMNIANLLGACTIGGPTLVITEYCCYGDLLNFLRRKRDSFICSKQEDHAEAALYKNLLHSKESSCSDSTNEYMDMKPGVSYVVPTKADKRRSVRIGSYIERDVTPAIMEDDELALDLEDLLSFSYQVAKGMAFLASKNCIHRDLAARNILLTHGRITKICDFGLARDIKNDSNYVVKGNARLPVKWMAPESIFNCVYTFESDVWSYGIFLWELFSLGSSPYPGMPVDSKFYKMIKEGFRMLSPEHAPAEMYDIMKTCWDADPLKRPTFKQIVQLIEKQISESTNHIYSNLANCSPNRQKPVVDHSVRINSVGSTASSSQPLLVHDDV
In short: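 Radiometric filter-binding read-out: substrate 33P incorporation counted by scintillation after P30 filtermat washes in 75 mM phosphoric acid and methanol. Enzyme: N-GST recombinant human c-Kit aa 544-end carrying V654A.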

| SMILES | IC50 (PDGFRalpha(V561D)) [nM] | IC50 (c-Kit(V654A)) [nM] |
| --- | --- | --- |
| CN1CCN(C(=O)c2cccc(-n3cc(-c4cc5ccccc5[nH]c4=O)nn3)c2)CC1 [A79, 3-{1-[3-(4-methyl-piperazine-1-carbonyl)-phenyl]-1H-[1,2,3]triazol-4-yl}-1H-quinolin-2-one] | 31 | 33 |
| O=C(c1ccc(-n2cc(-c3cc4cc(F)ccc4[nH]c3=O)nn2)cc1)N1C[C@@H](O)CO1 [A274, 6-fluoro-3-{1-[4-((R)-4-hydroxy-isoxazolidine-2-carbonyl)-phenyl]-1H-[1,2,3]triazol-4-yl}-1H-quinolin-2-one] | 3.3 | 61 |
| CN1CCN(C(=O)c2ccc(-n3cc(-c4cc5cc(F)cnc5[nH]c4=O)nn3)cc2)CC1 [A67, 6-fluoro-3-{1-[4-(4-methyl-piperazine-1-carbonyl)-phenyl]-1H-[1,2,3]triazol-4-yl}-1H-[1,8]naphthyridin-2-one] | 4 | 24 |
| O=C(c1ccc(-n2cc(-c3cc4cc(F)ccc4[nH]c3=O)nn2)cc1)N1C[C@H]2CNC[C@H]2C1 [A308, 6-fluoro-3-{1-[4-((cis)-hexahydro-pyrrolo[3,4-c]pyrrole-2-carbonyl)-phenyl]-1H-[1,2,3]triazol-4-yl}-1H-quinolin-2-one] | 97.4 | 10 |
| N[C@@H]1CCCN(C(=O)c2ccc(-n3cc(-c4cc5cc(F)c(F)cc5[nH]c4=O)nn3)cc2)C1 [A309, 3-{1-[4-((R)-3-amino-piperidine-1-carbonyl)-phenyl]-1H-[1,2,3]triazol-4-yl}-6,7-difluoro-1H-quinolin-2-one hydrochloride] | 130 | 63 |
| CN(C)CCc1ccc(-n2cc(-c3cc4cc(F)c(F)cc4[nH]c3=O)nn2)cc1 [A115, 3-{1-[4-(2-dimethylamino-ethyl)-phenyl]-1H-[1,2,3]triazol-4-yl}-6,7-difluoro-1H-quinolin-2-one] | 1400 | 180 |
| O=C(NCCO)c1ccc(-n2cc(-c3cc4ccccc4[nH]c3=O)nn2)cc1 [A19, N-(2-hydroxy-ethyl)-4-[4-(2-oxo-1,2-dihydro-quinolin-3-yl)-[1,2,3]triazol-1-yl]-benzamide] | 14 | 38 |
| COC[C@@H]1CCN(C(=O)c2ccc(-n3cc(-c4cc5cc(F)ccc5[nH]c4=O)nn3)cc2)C1 [A199, 6-fluoro-3-{1-[4-((R)-3-methoxymethyl-pyrrolidine-1-carbonyl)-phenyl]-1H-[1,2,3]triazol-4-yl}-1H-quinolin-2-one] | 22 | 16 |

Results, then the compound that gave them:

| IC50 (PDGFRalpha(V561D)) [nM] | IC50 (c-Kit(V654A)) [nM] | SMILES |
| --- | --- | --- |
| 580 | 53 | O=C(c1ccc(-n2cc(-c3cc4cc(F)ccc4[nH]c3=O)nn2)cc1)N1CCC(OCCN2CCOCC2)C1 (centres unmarked) [A209, 6-fluoro-3-(1-{4-[3-(2-morpholin-4-yl-ethoxy)-pyrrolidine-1-carbonyl]-phenyl}-1H-[1,2,3]triazol-4-yl)-1H-quinolin-2-one] |
| 1.6 | 14 | CC(=O)O[C@@H]1CCN(C(=O)c2ccc(-n3cc(-c4cc5cc(F)ccc5[nH]c4=O)nn3)cc2)C1 [A179, acetic acid (R)-1-{4-[4-(6-fluoro-2-oxo-1,2-dihydro-quinolin-3-yl)-[1,2,3]triazol-1-yl]-benzoyl}-pyrrolidin-3-yl ester] |
| 6.4 | 11 | O=c1[nH]c2ccc(F)cc2cc1-c1cn(-c2ccc(OCCC3CCNCC3)cc2)nn1 [A133, 6-fluoro-3-{1-[4-(2-piperidin-4-yl-ethoxy)-phenyl]-1H-[1,2,3]triazol-4-yl}-1H-quinolin-2-one] |
| 1400 | 200 | O=C(c1ccc(-n2cc(-c3cc4cc(F)ccc4[nH]c3=O)nn2)cc1)N1CCNC[C@H]1CO [A315, 6-fluoro-3-{1-[4-((S)-2-hydroxymethyl-piperazine-1-carbonyl)-phenyl]-1H-[1,2,3]triazol-4-yl}-1H-quinolin-2-one] |
| 14 | 14 | O=c1[nH]c2ccccc2cc1-c1cn(-c2ccc(N3CCCNCC3)cc2)nn1 [A55, 3-[1-(4-[1,4]diazepan-1-yl-phenyl)-1H-[1,2,3]triazol-4-yl]-1H-quinolin-2-one] |
